Test results: patent publication US20210139454A1, “FORMAMIDE COMPOUND, PREPARATION METHOD THEREFOR AND APPLICATION THEREOF” (SHENZHEN CHIPSCREEN BIOSCIENCES CO., LTD., priority 2018, published 2021)

Target: T1, recombinant human ASK1 (Homo sapiens, UniProt Q99683)
T1 construct: purchased Invitrogen PR7349B
T1 sequence (Q99683 1-1374): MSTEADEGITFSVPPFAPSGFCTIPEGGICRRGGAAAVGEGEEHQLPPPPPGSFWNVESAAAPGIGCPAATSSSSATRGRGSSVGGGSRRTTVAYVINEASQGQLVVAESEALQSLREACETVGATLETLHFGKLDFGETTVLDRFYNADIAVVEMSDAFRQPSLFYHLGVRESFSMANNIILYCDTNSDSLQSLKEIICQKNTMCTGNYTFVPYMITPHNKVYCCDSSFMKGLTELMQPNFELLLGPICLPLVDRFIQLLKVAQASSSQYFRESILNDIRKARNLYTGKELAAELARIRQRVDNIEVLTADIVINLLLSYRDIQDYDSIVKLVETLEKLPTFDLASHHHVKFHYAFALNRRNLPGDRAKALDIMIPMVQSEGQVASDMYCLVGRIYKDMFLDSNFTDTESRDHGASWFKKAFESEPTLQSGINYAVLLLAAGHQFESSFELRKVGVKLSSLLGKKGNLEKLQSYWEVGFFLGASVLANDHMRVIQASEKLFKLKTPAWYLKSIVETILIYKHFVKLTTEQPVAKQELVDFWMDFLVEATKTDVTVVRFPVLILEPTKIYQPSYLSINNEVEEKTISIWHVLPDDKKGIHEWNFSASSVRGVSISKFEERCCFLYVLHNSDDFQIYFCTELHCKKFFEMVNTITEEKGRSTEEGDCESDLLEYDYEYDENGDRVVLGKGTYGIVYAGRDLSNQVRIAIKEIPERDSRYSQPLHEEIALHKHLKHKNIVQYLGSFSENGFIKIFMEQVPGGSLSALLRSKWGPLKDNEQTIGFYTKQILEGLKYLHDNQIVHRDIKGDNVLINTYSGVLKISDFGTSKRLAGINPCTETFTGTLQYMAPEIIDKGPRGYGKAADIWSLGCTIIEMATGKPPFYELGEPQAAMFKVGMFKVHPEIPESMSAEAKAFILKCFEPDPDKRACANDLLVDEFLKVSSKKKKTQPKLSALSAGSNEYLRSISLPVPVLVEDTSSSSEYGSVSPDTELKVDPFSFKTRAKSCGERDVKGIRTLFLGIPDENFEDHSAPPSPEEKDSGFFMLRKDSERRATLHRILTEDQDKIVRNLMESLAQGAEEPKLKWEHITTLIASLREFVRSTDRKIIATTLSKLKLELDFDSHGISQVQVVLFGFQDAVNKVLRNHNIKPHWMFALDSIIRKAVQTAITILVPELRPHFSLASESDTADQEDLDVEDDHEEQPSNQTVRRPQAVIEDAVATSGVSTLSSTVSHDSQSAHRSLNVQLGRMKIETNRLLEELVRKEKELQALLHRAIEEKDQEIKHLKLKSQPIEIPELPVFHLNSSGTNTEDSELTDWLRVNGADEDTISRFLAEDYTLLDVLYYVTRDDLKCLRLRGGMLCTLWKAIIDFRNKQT
Test: ASK1 enzymatic inhibition in vitro by HTRF
Assay type: biochemical
Conditions: HTRF method, single concentration 100 nM
From the text: In this detection, homogeneous time resolved fluorescence (HTRF) was used to evaluate the inhibitory level of the compound on the enzyme activity of recombinant human ASK1 in an in vitro reaction system.
The basic principle of the detection of enzymatic activity in vitro: a specific substrate labeled with biotin at the end is phosphorylated under the action of a kinase, and the reaction product is mixed with the EU3+-Cryptate-labeled antibody that recognizes the phosphorylation site and XL665-labeled streptavidin. When the two fluorescent molecules are bound to the substrate at the same time, Eu will produce […] fluorescence under the stimulation of external excitation light (320 nm), and meanwhile, XL665 will be excited by energy transfer to produce 665 nm fluorescence. The phosphorylation of the substrate is evaluated by comparing the changes of fluorescence at two wavelengths (620 nm and 665 nm). […] The basic detection principle is known in the prior art (Cisbio, Nature Method 2006, June 23; DOI:10.1038/NMETH883).
Human recombinant ASK1 (MAP3K5) kinase, 2× kinase reaction buffer, and ATP (10 mM) were purchased from Invitrogen (Cat. No.: PR7349B), and HTRF detection kit, HTRF KinEASE STK discovery kit, was purchased from Cisbio (Cat. No.: 62ST0PEB).
The experimental process was carried out in accordance with the procedures required by the detection reagent manual (https://www.cisbio.com/sites/default/files/ressources/cisbio_ddpi_62ST0PEB.pdf). The details are as follows:
(1) Experimental preparation: the kinase reaction buffer (working solution) is prepared as required and used to dilute the test compound into different concentration gradients (the maximum concentration of the compound is 4 μM).
(2) 10 μL of the enzymatic reaction system (including 2.5 μL of test compound, 5 μL of kinase reaction buffer and 2.5 μL of ATP solution (provided in the kit)) is mixed well and reacted at room temperature for 1 h. The enzymatic reaction is carried out in a 96-well microplate.
(3) EU3+-Cryptate-labeled antibody and XL665-labeled streptavidin are diluted with reaction termination buffer in an appropriate ratio, and 5 μL of each of two diluted detection solutions is added to each reaction well and reacted at room temperature for 2 h.
(4) The reaction is set up with a control reaction at the same time, including a positive control without test compound and a negative control without ASK1 kinase. All detections are carried out in duplicate.
(5) After the reaction, a fluorescence detector (TecanSPARK 10M) is used to detect the fluorescence signal of each well, wherein, the excitation wavelength is 320 nm, and the detected emission wavelengths are 620 nm and 665 nm, respectively.
(6) The 665/620 ratio of each well is calculated respectively, and the 665/620 ratio of the negative control well is subtracted from that of the positive control well to get the basic level of phosphorylation of the substrate. The formula for calculating the enzymatic inhibition rate of the test compound: inhibition rate (%)=1-(ratio of detection wells-ratio of negative wells)/basic level of phosphorylation of the substrate. The phosphorylation inhibition rates are calculated for the test compounds with different concentration gradients, and then the 50% enzymatic inhibiting concentration (IC50) is calculated by using the IC50 calculator. The summary data of the representative compounds of the present invention are as follows (see Table 2).

Structure (SMILES)	Inhibition Rate %
Cc1cc(F)c(C(=O)Nc2cccc(-c3nncn3[C@@H](C)C(F)(F)F)n2)cc1NC(=O)C1CC1 [Compound I-3, (5)-5-(cyclopropylformamido)-2-fluoro-4-methyl-N-(6-(4-(1,1,1-trifluoropropyl-2-yl)-4H-1,2,4-triazol-3-yl)pyridin-2-yl)benzamide]	51%
COC[C@@H](C)n1cnnc1-c1cccc(NC(=O)c2cc(NC(=O)C3CC3)c(C)cc2F)n1 [Compound I-6]	13%
Cc1cc(F)c(C(=O)Nc2csc(-c3nncn3[C@@H](C)C(F)(F)F)n2)cc1NC(=O)C1CC1 [Compound I-8]	24%
C[C@H](n1cnnc1-c1cccc(NC(=O)c2cc(NC(=O)C3CC3)c(Cl)cc2F)n1)C(F)(F)F [Compound I-9, (S)-4-chloro-5-(cyclopropylformamido)-2-fluoro-N-(6-(4-(1,1,1-trifluoropropyl-2-yl)-4H-1,2,4-triazol-3-yl)pyridin-2-yl)benzamide]	33%
C[C@H](n1cnnc1-c1cccc(NC(=O)c2cc(NC(=O)C3CC3)ccn2)n1)C(F)(F)F [Compound I-10, (S)-4-(cyclopropylformamido)-N-(6-(4-(1,1,1-trifluoropropyl-2-yl)-4H-1,2,4-triazol-3-yl)pyridin-2-yl)pyridin-2-formamide]	44%
C[C@H](n1cnnc1-c1cccc(NC(=O)c2cc(NC(=O)C3CC3)c(F)cn2)n1)C(F)(F)F [Compound I-11, (S)-4-(cyclopropylformamido)-5-fluoro-N-(6-(4-(1,1,1-trifluoropropyl-2-yl)-4H-1,2,4-triazol-3-yl)pyridin-2-yl)pyridin-2-formamide]	27%
Cc1cc(F)c(C(=O)Nc2cccc(-c3nncn3C(C)C)n2)cc1NC(=O)C1CC1c1ccc(F)cc1 (stereo not drawn) [Compound I-13, 2-fluoro-5-(2-(4-fluorophenyl)cyclopropyl-1-formamido)-N-(6-(4-isopropyl-4H-1,2,4-triazol-3-yl)pyridin-2-yl)-4-methylbenzamide]	18%
Cc1cc(F)c(C(=O)Nc2cccc(-c3nncn3C(C)C)n2)cc1NC(=O)C1(F)CC1 [Compound I-16, 2-fluoro-N-(6-(4-isopropyl-4H-1,2,4-triazol-3-yl)pyridin-2-yl)-4-methyl-5-(1-(fluoro)cyclopropyl-1-formamido)benzamide]	21%
Cc1cc(F)c(C(=O)Nc2cccc(-c3nncn3C(C)C)n2)cc1NC(=O)[C@H]1C[C@H]1F [Compound I-17, 2-fluoro-5-((1R,2R)-2-fluorocyclopropyl-1-formamido)-N-(6-(4-isopropyl-4H-1,2,4-triazol-3-yl)pyridin-2-yl)-4-methylbenzamide]	15%
Cc1cc(F)c(C(=O)Nc2cccc(-c3nncn3C(C)C)n2)cc1NC(=O)[C@H]1C[C@@H]1F [Compound I-18, 2-fluoro-5-((1R,2S)-2-fluorocyclopropyl-1-formamido)-N-(6-(4-isopropyl-4H-1,2,4-triazol-3-yl)pyridin-2-yl)-4-methylbenzamide]	34%
Cc1cc(F)c(C(=O)Nc2cccc(-c3nncn3[C@@H](C)C(F)(F)F)n2)cc1NC(=O)C1CCCC1 [Compound I-19, (S)-5-(cyclopentylformamido)-2-fluoro-4-methyl-N-(6-(4-(1,1,1-trifluoropropyl-2-yl)-4H-1,2,4-triazol-3-yl)pyridin-2-yl)benzamide]	52%
Cc1cc(F)c(C(=O)Nc2cccc(-c3nncn3[C@@H](C)C(F)(F)F)n2)cc1NC(=O)C1CCCCCC1 [Compound I-20, (S)-5-(cycloheptylformamido)-2-fluoro-4-methyl-N-(6-(4-(1,1,1-trifluoropropyl-2-yl)-4H-1,2,4-triazol-3-yl)pyridin-2-yl)benzamide]	16%

Same assay, conditions: HTRF method, single concentration 100 nM; read-out: Inhibition Rate %

Structure (SMILES)	inhibition at 0.1 µM
Cc1cc(F)c(C(=O)Nc2cccc(-c3nncn3C(C)C)n2)cc1NC(=O)C1CC1 [Compound I-1, 5-(cyclopropylformamido)-2-fluoro-4-methyl-N-(6-(4-isopropyl-4H-1,2,4-triazol-3-yl)pyridin-2-yl)benzamide]	54%
Cc1cc(F)c(C(=O)Nc2cccc(-c3nncn3CC(F)(F)F)n2)cc1NC(=O)C1CC1 [Compound I-4, 5-(cyclopropylformamido)-2-fluoro-4-methyl-N-(6-(4-(2,2,2-trifluoroethyl)-4H-1,2,4-triazol-3-yl)pyridin-2-yl)benzamide]	32%
Cc1cc(F)c(C(=O)Nc2cccc(-c3nncn3C(C)C)n2)cc1NC(=O)C1CCC1 [Compound I-14, 5-(cyclobutylformamido)-2-fluoro-N-(6-(4-isopropyl-4H-1,2,4-triazol-3-yl)pyridin-2-yl)-4-methylbenzamide]	42%
